Several values for one entry are separate records, joined by “and”; a condition that tells them apart may be missing. Equal entries are not always repeated.
Tested on: 349418-098-R tumor spheroid viability
Assay: Anticancer human tumor 349418-098-R patient-derived lung adenocarcinoma cell line growth inhibition
Details: spheroids with HUVEC and MSC; for viability, T/C: stronger effect = lower value
Method in brief: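 Complex tumor spheroids combined malignant cells with endothelial cells and mesenchymal stem cells. DNA-damaging drugs and DNA repair inhibitors were tested alone and in combination, at half-log dilutions down from clinical Cmax (top 10 microM if Cmax unknown), 0.25% DMSO final.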

[1] = curve of first compound, second compound 1 µM
[2] = curve of first compound, second compound 3.16 µM
[3] = curve of first compound, second compound 10 µM
[4] = curve of first compound, second compound 31.6 µM
[5] = curve of first compound, second compound 100 µM
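Also: spheroids exposed to compound for 7 days before measurement.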
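For viability, T/C in this document: percent of vehicle control viability with 100% = DMSO-treated spheroids.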

CC1COCCN1c1cc(-c2ccnn2C)c2ccnc(-c3ccn[nH]3)c2n1 (stereo unspecified) + Cn1nnc2c(C(N)=O)ncn2c1=O showed an IC50 [1] of 66.4 nM, an IC50 [2] of 64 nM and an IC50 [3] of 61.4 nM. The IC50 [4] was 67.9 nM, the IC50 [5] was 52.6 nM and the viability, T/C (second compound 1 µM, first compound 0.0316 µM) was 90.2%. It also gave a viability, T/C (second compound 1 µM, first compound 0.1 µM) of 27.8%, a viability, T/C (second compound 1 µM, first compound 0.316 µM) of 11.8% and a viability, T/C (second compound 1 µM, first compound 1 µM) of 11.1%. It also gave a viability, T/C (second compound 1 µM, first compound 3.16 µM) of 11.1%, a viability, T/C (second compound 1 µM, first compound 10 µM) of 10.9% and a viability, T/C (second compound 3.16 µM, first compound 0.0316 µM) of 90.5%. It also gave a viability, T/C (second compound 3.16 µM, first compound 0.1 µM) of 24.4%, a viability, T/C (second compound 3.16 µM, first compound 0.316 µM) of 12.5% and a viability, T/C (second compound 3.16 µM, first compound 1 µM) of 10.3%. For the same compound, the viability, T/C (second compound 3.16 µM, first compound 3.16 µM) was 11.1%, the viability, T/C (second compound 3.16 µM, first compound 10 µM) was 10.4% and the viability, T/C (second compound 10 µM, first compound 0.0316 µM) was 90.7%. It also gave a viability, T/C (second compound 10 µM, first compound 0.1 µM) of 20%, a viability, T/C (second compound 10 µM, first compound 0.316 µM) of 11.9% and a viability, T/C (second compound 10 µM, first compound 1 µM) of 9.88%. It also gave a viability, T/C (second compound 10 µM, first compound 3.16 µM) of 11.1%, a viability, T/C (second compound 10 µM, first compound 10 µM) of 9.65% and a viability, T/C (second compound 31.6 µM, first compound 0.0316 µM) of 91.9%. The viability, T/C (second compound 31.6 µM, first compound 0.1 µM) was 28.8%, the viability, T/C (second compound 31.6 µM, first compound 0.316 µM) was 10.5% and the viability, T/C (second compound 31.6 µM, first compound 1 µM) was 9.5%. For the same compound, the viability, T/C (second compound 31.6 µM, first compound 3.16 µM) was 11.8%, the viability, T/C (second compound 31.6 µM, first compound 10 µM) was 10.2% and the viability, T/C (second compound 100 µM, first compound 0.0316 µM) was 77.9%. The viability, T/C (second compound 100 µM, first compound 0.1 µM) was 14.8%, the viability, T/C (second compound 100 µM, first compound 0.316 µM) was 9.79% and the viability, T/C (second compound 100 µM, first compound 1 µM) was 9.43%. The viability, T/C (second compound 100 µM, first compound 3.16 µM) was 9.05% and the viability, T/C (second compound 100 µM, first compound 10 µM) was 9.14%.

Compound Cn1ncnc1[C@H]1c2n[nH]c(=O)c3cc(F)cc(c23)N[C@@H]1c1ccc(F)cc1 + Cn1nnc2c(C(N)=O)ncn2c1=O has an IC50 [1] of 1580 nM, an IC50 [2] of 1470 nM and an IC50 [3] of 1100 nM. The IC50 [4] was 131 nM, the IC50 [5] was < 9.49 nM and the viability, T/C (second compound 1 µM, first compound 0.00949 µM) was 99%. The viability, T/C (second compound 1 µM, first compound 0.03 µM) was 99.2%, the viability, T/C (second compound 1 µM, first compound 0.0949 µM) was 94.3% and the viability, T/C (second compound 1 µM, first compound 0.3 µM) was 99.9%. The viability, T/C (second compound 1 µM, first compound 0.949 µM) was 82.9%, the viability, T/C (second compound 1 µM, first compound 3 µM) was 8.45% and the viability, T/C (second compound 3.16 µM, first compound 0.00949 µM) was 100%. For the same compound, the viability, T/C (second compound 3.16 µM, first compound 0.03 µM) was 99.9%, the viability, T/C (second compound 3.16 µM, first compound 0.0949 µM) was 97.5% and the viability, T/C (second compound 3.16 µM, first compound 0.3 µM) was 95.4%. The viability, T/C (second compound 3.16 µM, first compound 0.949 µM) was 77.1%, the viability, T/C (second compound 3.16 µM, first compound 3 µM) was 6.31% and the viability, T/C (second compound 10 µM, first compound 0.00949 µM) was 104%. For the same compound, the viability, T/C (second compound 10 µM, first compound 0.03 µM) was 98%, the viability, T/C (second compound 10 µM, first compound 0.0949 µM) was 95.1% and the viability, T/C (second compound 10 µM, first compound 0.3 µM) was 94%. The viability, T/C (second compound 10 µM, first compound 0.949 µM) was 56.2%, the viability, T/C (second compound 10 µM, first compound 3 µM) was 6.77% and the viability, T/C (second compound 31.6 µM, first compound 0.00949 µM) was 97.7%. The viability, T/C (second compound 31.6 µM, first compound 0.03 µM) was 77.7%, the viability, T/C (second compound 31.6 µM, first compound 0.0949 µM) was 56.5% and the viability, T/C (second compound 31.6 µM, first compound 0.3 µM) was 35.6%. The viability, T/C (second compound 31.6 µM, first compound 0.949 µM) was 12.3%, the viability, T/C (second compound 31.6 µM, first compound 3 µM) was 3.26% and the viability, T/C (second compound 100 µM, first compound 0.00949 µM) was 16.3%. For the same compound, the viability, T/C (second compound 100 µM, first compound 0.03 µM) was 12.1%, the viability, T/C (second compound 100 µM, first compound 0.0949 µM) was 9.69% and the viability, T/C (second compound 100 µM, first compound 0.3 µM) was 7.58%. For the same compound, the viability, T/C (second compound 100 µM, first compound 0.949 µM) was 6.59% and the viability, T/C (second compound 100 µM, first compound 3 µM) was 1.86%.

With COc1cc2c(cc1O)CCNC21CSC2c3c(OC(C)=O)c(C)c4c(c3C(COC1=O)N1C(O)C3Cc5cc(C)c(OC)c(O)c5C(C21)N3C)OCO4 (stereo unspecified) the viability, T/C (compound 94.9 pM) was 90.5% [middle of 10 runs], the viability, T/C (compound 0.0003 µM) was 88.1% [middle of 10 runs] and the viability, T/C (compound 0.000949 µM) was 0.55% [middle of 10 runs]. The viability, T/C (compound 0.003 µM) was 1.4% [middle of 9 runs] and the IC50 (compound alone, run of 10/25/2019) was 0.496 nM [middle of 9 runs].

With Cc1cc(C)c(CNC(=O)c2cc(-c3ccc(CN4CCOCC4)cc3)cc3c2cnn3C2CCCC2)c(=O)[nH]1 the viability, T/C (compound 0.0316 µM) was 99.9% and 101% and 92.4%, the viability, T/C (compound 0.1 µM) was 118% and 95.5% and 100% and the viability, T/C (compound 0.316 µM) was 111% and 98.5% and 101%. The viability, T/C (compound 1 µM) was 109% and 97% and 96.8%, the viability, T/C (compound 3.16 µM) was 126% and 87.5% and 87.7% and the viability, T/C (compound 10 µM) was 75.6% and 33.3% and 40.8%. The IC50 (curve of compound) was > 10000 nM and 7020 nM and 7990 nM.

For CC1COCCN1c1cc(-c2ccnn2C)c2ccnc(-c3ccn[nH]3)c2n1 (stereo unspecified), the viability, T/C (compound 0.0316 µM) was 90.1% and 88.7% and 108%, the viability, T/C (compound 0.1 µM) was 48.2% and 41.8% and 114% and the viability, T/C (compound 0.316 µM) was 14.5% and 13% and 23.9%. For the same compound, the viability, T/C (compound 1 µM) was 11.7% and 10.5% and 18.3%, the viability, T/C (compound 3.16 µM) was 12.6% and 11.9% and 16.4% and the viability, T/C (compound 10 µM) was 11.6% (2×) and 11.7%. For the same compound, the IC50 (curve of compound) was 95.2 nM and 81.8 nM and 224 nM.

With O=C(c1cc(Cc2n[nH]c(=O)c3ccccc23)ccc1F)N1CCN(C(=O)C2CC2)CC1 the viability, T/C (compound 0.0949 µM) was 103% and 97.1% and 105%, the viability, T/C (compound 0.3 µM) was 104% and 106% and 113% and the viability, T/C (compound 0.949 µM) was 101% and 97.6% and 107%. For the same compound, the viability, T/C (compound 3 µM) was 94.8% and 97.7% and 110%, the viability, T/C (compound 9.49 µM) was 84.8% and 83.9% and 106% and the viability, T/C (compound 30 µM) was 56.2% and 53.6% and 74.1%. The IC50 (curve of compound) was > 30000 nM.

— PubChem BioAssay AID1845197 (Molecular Pharmacology Branch, DTP, NCI, 2023)
